Test results: patent publication US20260374766A1, “METHODS FOR TREATING CANCER” (Antares Therapeutics, Inc., priority 2022, published 2026)
pIC50, pKd: −log10 of the molar value. Read-outs that look alike come from different tables or passages of the source.

Tests used:
[1] = target: T1, p53 Y220C mutant protein (amino acid residues 94-293) (Homo sapiens, UniProt P04637, Y220C); experiment: Surface Plasmon Resonance (SPR) assay, Kd_kinetic; format: binding; details: read-out: SPR P53 Y220C KD kinetic
T1 construct: p53 Y220C mutant protein (amino acid residues 94-293)
In short: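 Biacore 8K SPR; 16 or 20 °C; Tris 50 mM pH 7.5, NaCl 100 mM, DTT 1 mM, Brij35 0.01%, Tween-20 0.05%, DMSO 1%. Kd_kinetic by 1:1 fit.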

NUGC3 p53 Y220C = experiment: Cell Proliferation Assay (CellTiter-Glo, CTG), NUGC3 p53 Y220C; format: cell-based; details: Homo sapiens, NUGC-3, 120 h, NUGC3 cells, 5 days, CellTiter-Glo
Description: Inducible p53 Y220C and R273H constructs (Tet-One inducible expression system; Takara) were stably expressed in NClH1299 cells by lentiviral transduction. NUGC3, A549, BxPC3, T3M4, HuH7, HCC2935, MFE296, NClH1299, NClH1299-inducible p53 Y220C, and NClH1299-inducible p53 R273H cell lines were used for cell proliferation assay. 250-500 cells were seeded in each well of 384 plate and then compounds were dispensed into each well using Echo or Tecan. After 5 days of incubation, equal volume of CellTiter-Glo reagent (G7570; Promega) was added into each well and the plate was incubated at room temperature for 10 minutes with shaking. The luminescent signal was measured by PheraStar microplate reader and IC50 was calculated.

H1299 p53 Y220C = experiment: Cell Proliferation Assay (CellTiter-Glo, CTG), H1299 p53 Y220C (NClH1299-inducible p53 Y220C); format: cell-based; details: Homo sapiens, NCI-H1299, 120 h, NClH1299-inducible p53 Y220C cells, 5 days, CellTiter-Glo
In short: (§1)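 NClH1299 lines stably transduced with Tet-inducible p53 Y220C or R273H, plus NUGC3, were treated with compound for 5 days at 250-500 cells/well. IC50 derived from CellTiter-Glo luminescent signal after 10 min room-temperature incubation.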

p53 Y220C = p53 Y220C (Homo sapiens, UniProt P04637, Y220C); experiment: Luciferase Reporter Assay (Luc), p53 response element, NClH1299 cells with inducible p53 Y220C; format: cell-based; details: luciferase reporter, NClH1299 inducible p53 Y220C, 6 hour; for AC50: read-out: Luc P53 Y220C AC50
In short: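 Steps: seed 5,000 cells/well; induce mutant p53 with 0.5 ug/mL doxycycline for 24 h; treat with compound 6 h; add equal volume One-Glo, shake 5 min at room temperature; measure luciferase immediately.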

H1299 p53 R273H = experiment: Cell Proliferation Assay (CellTiter-Glo, CTG), H1299 p53 R273H (NClH1299-inducible p53 R273H); format: cell-based; details: Homo sapiens, NCI-H1299, 120 h, NClH1299-inducible p53 R273H cells, 5 days, CellTiter-Glo
In short: as §1

T1 sequence (P04637 94-293, stated change not applied): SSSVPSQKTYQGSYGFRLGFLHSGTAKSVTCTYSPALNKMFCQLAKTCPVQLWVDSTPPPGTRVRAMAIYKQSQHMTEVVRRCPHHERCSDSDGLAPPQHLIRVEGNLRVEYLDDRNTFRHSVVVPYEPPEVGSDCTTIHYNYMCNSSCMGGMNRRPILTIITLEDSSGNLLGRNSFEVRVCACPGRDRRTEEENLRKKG

Row | SMILES | pKd ([1]; SPR, p53 Y220C) | pIC50 (H1299 p53 Y220C) | AC50 (p53 Y220C) | Emax (p53 Y220C) | pIC50 (H1299 p53 R273H) | pKd [1] | pIC50 (NUGC3 p53 Y220C)
1 | CNC(=O)c1ccc(NCC#Cc2nn3c(N[C@@H]4CCNC[C@@H]4F)cccc3c2SC(F)(F)F)c(OC)c1 [Example 272] | > 8.00 | > 6.12 | < 750 nM | 80 to 90% | 5.10 to 5.30 | – | 5.82 to 6.12
2 | CCc1ncc(C(=O)NC)cc1NCC#Cc1nc2c(N[C@@H]3CCN(C)C[C@@H]3F)cccn2c1SC(F)(F)F [Example 273] | > 8.00 | > 6.12 | < 750 nM | > 90% | ≤ 5.00 | – | > 6.12
3 | CNC(=O)c1cnc(C)c(NCC#Cc2nc3c(N[C@@H]4CCN(C)C[C@@H]4F)cccn3c2SC(F)(F)F)c1 [Example 274] | > 8.00 | > 6.12 | < 750 nM | > 90% | ≤ 5.00 | – | > 6.12
4 | CNC(=O)c1ccc(NCC#Cc2nc3c(N[C@@H]4CCOC[C@@H]4F)cccn3c2SC(F)(F)F)c(OC2CN(C)C2)c1 [Example 275, 4-{[3-(8-{[(3R,4R)-3-fluorooxan-4-yl]amino}-3-[(trifluoromethyl)sulfanyl]imidazo[1,2-a]pyridin-2-yl)prop-2-yn-1-yl]amino}-N-methyl-3-[(1-methylazetidin-3-yl)oxy]benzamide] | > 8.00 | > 6.12 | < 750 nM | 80 to 90% | 5.10 to 5.30 | – | > 6.12
5 | COc1ncc(C(N)=O)cc1NCC#Cc1nn2c(N[C@@H]3CCN(C)C[C@@H]3F)cccc2c1SC(F)(F)F [Example 276] | > 8.00 | > 6.12 | < 750 nM | 80 to 90% | > 5.30 | – | > 6.12
6 | CNC(=O)c1cnc(OC)c(NCC#Cc2nc3c(N[C@@H]4CCN(C)C[C@@H]4F)cccn3c2SC(F)F)c1 [Example 278] | > 8.00 | > 6.12 | < 750 nM | 70 to 80% | > 5.30 | – | > 6.12
7 | COc1cc(C(N)=O)ccc1NCC#Cc1nn2c(N[C@@H]3CCN(C)C[C@@H]3F)cccc2c1SC(F)F [Example 286] | > 8.00 | > 6.12 | < 750 nM | > 90% | ≤ 5.00 | – | > 6.12
8 | CNC(=O)c1ccc(NCC#Cc2cc3c(N[C@@H]4CCNC[C@@H]4F)nccn3c2SC(F)(F)F)cc1 [Example 298] | – | > 6.12 | < 750 nM | > 90% | ≤ 5.00 | > 8.00 | > 6.12

The next lines start with results.

Row | pKd ([1]; SPR, p53 Y220C) | pIC50 (H1299 p53 Y220C) | AC50 (p53 Y220C) | Emax (p53 Y220C) | pIC50 (H1299 p53 R273H) | pKd [1] | SMILES | pIC50 (NUGC3 p53 Y220C)
9 | > 8.00 | > 6.12 | < 750 nM | > 90% | ≤ 5.00 | – | COc1cc(C(N)=O)ccc1NCC#Cc1cc2c(N[C@@H]3CCN(C)C[C@@H]3F)nccn2c1SC(F)(F)F [Example 299] | > 6.12
10 | > 8.00 | 5.82 to 6.12 | 750 to 1500 nM | > 90% | ≤ 5.00 | – | CNC(=O)c1ccc(NCC#Cc2cc3c(N[C@@H]4CCN(C)C[C@@H]4F)nccn3c2SC(F)(F)F)c(C#N)c1 [Example 301] | 5.82 to 6.12
11 | > 8.00 | > 6.12 | < 750 nM | > 90% | ≤ 5.00 | – | CNC(=O)c1ccc(NCC#Cc2cc3c(N[C@@H]4CCN(C)C[C@@H]4F)nccn3c2SC(F)(F)F)c(F)c1 [Example 302] | > 6.12
12 | > 8.00 | > 6.12 | < 750 nM | 80 to 90% | ≤ 5.00 | – | CNC(=O)c1cnc(OC)c(NCC#Cc2nc3c(N[C@@H]4CNC[C@@H]4F)cccn3c2SC(F)(F)F)c1 [Example 305] | > 6.12
13 | > 8.00 | > 6.12 | < 750 nM | > 90% | ≤ 5.00 | – | CNC(=O)c1ccc(NCC#Cc2nc3c(N[C@@H]4CCN(C)C[C@@H]4F)cccn3c2SC(F)(F)F)c(Cl)c1 [Example 310] | > 6.12
14 | > 8.00 | > 6.12 | < 750 nM | > 90% | 5.10 to 5.30 | – | CNC(=O)c1ccc(NCC#Cc2nc3c(N[C@@H]4CCN(C)C[C@@H]4F)cccn3c2SC(F)(F)F)c(F)c1 [Example 311] | > 6.12
